The term IC50 denotes the concentration at which inhibition is half-maximal. Read a low IC50 as higher potency.

Where a SMILES comes first, the peptide text is derived from it. The star is where a group is joined. X2 = O=C(O)C(F)(C(=O)O)*; X1 = O=C(O)C(C(=O)O)*

This note sets out measurements from ChEMBL document CHEMBL1129503, “4'-O-[2-(2-fluoromalonyl)]-L-tyrosine: a phosphotyrosyl mimic for the preparation of signal transduction inhibitory peptides” (J Med Chem, 1996).

Data set [1] is described as follows: Inhibition of binding to p85 Phosphatidylinositol 3-kinase C-terminal SH2 domain.
The nature of data set [2]: Ionization constant (pKa2) by treating potentiometric titration data according to the method Noyes. The following applies: read-out: pKa2. Format: physicochemical.
The target in data set [3] is T1, Tyrosine-protein phosphatase non-receptor type 1 (Homo sapiens, UniProt P18031).
T1 sequence (P18031 whole entry): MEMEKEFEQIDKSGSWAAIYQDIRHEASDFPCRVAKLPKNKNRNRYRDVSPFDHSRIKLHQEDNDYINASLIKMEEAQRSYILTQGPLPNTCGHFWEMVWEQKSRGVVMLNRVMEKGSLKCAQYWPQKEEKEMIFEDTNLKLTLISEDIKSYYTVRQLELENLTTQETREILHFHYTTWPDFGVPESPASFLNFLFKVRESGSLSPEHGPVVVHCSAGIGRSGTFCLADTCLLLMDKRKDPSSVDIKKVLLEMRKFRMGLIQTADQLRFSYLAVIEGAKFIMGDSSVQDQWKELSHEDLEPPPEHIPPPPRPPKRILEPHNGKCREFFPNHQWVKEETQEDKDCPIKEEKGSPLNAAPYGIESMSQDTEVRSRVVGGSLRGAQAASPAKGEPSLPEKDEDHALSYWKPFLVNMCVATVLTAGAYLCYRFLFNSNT
Briefly: Inhibitory activity against Protein-tyrosine phosphatase 1B-mediated dephosphorylation of phosphorylated insulin receptor using (CHO) cell line transfected with an expression plasmid encoding the normal human insulin receptor [CHO/HIRc].

In data set [1], `CSCC[C@H](NC(=O)[C@@H]1CCCN1C(=O)[C@@H](NC(=O)[C@H](Cc1ccc(OC(C(=O)O)C(=O)O)cc1)NC(=O)[C@H](CC(=O)O)NC(C)=O)C(C)C)C(=O)N[C@@H](CC(C)C)C(N)=O` (Ac-DY(X1)VPML-NH2) displayed an IC50 of 14 µM.
`CSCC[C@H](NC(=O)[C@@H]1CCCN1C(=O)[C@@H](NC(=O)[C@H](Cc1ccc(OC(F)(C(=O)O)C(=O)O)cc1)NC(=O)[C@H](CC(=O)O)NC(C)=O)C(C)C)C(=O)N[C@@H](CC(C)C)C(N)=O` (Ac-DY(X2)VPML-NH2) returned an IC50 in data set [1] of 18 µM.
Turning to `O=C(O)C(Oc1ccc2cc(Br)ccc2c1)C(=O)O`, the pKa in data set [2] came out at 3.91.
Compound `CC(=O)N[C@@H](CC(=O)O)C(=O)N[C@@H](C)C(=O)N[C@@H](CC(=O)O)C(=O)N[C@@H](CCC(=O)O)C(=O)N[C@@H](Cc1ccc(OC(F)(C(=O)O)C(=O)O)cc1)C(=O)N[C@@H](CC(C)C)C(N)=O` (Ac-DADEY(X2)L-NH2) gave an IC50 in data set [3] of 1 µM.
`CC(=O)N[C@@H](CC(=O)O)C(=O)N[C@@H](C)C(=O)N[C@@H](CC(=O)O)C(=O)N[C@@H](CCC(=O)O)C(=O)N[C@@H](Cc1ccc(OC(C(=O)O)C(=O)O)cc1)C(=O)N[C@@H](CC(C)C)C(N)=O` (Ac-DADEY(X1)L-NH2) gave an IC50 in data set [3] of 10 µM.
Turning to `O=C(O)C(F)(Oc1ccc2cc(Br)ccc2c1)C(=O)O`, in data set [2], the pKa was 2.84.
